Measurements: patent US8636983B2, “Aminoglycoside and fosfomycin combination for treatment of ventilator associated pneumonia (VAP) and ventilator associated tracheal (VAT) bronchitis” (priority 2011, dated 2014)
Converted amounts (≈) assume the structure as drawn. Counter-ions that a name gives are not always drawn. Like-named read-outs stand apart in the source and are kept apart here.

Tests used:
[1] = inhaled; cited from earlier work
[2] = pH and osmolality of amikacin starting material and solution; assay type: physicochemical; conditions: starting material
Excerpt: Amikacin Base, EP is compendial (Ph Eur) and is manufactured by ACS Dobfar S.p.a under DMF 13762. The API is manufactured in Bergamo, Italy. Fosfomycin Disodium is compendial (Ph Eur) and is manufactured by Ercros, S.A. under DMF 14341. The API is manufactured in Madrid, Spain. Rather than commercial amikacin sulfate, the amikacin base is the starting material. Amikacin base has a pH of approximately 11, and large amounts of HCl are required to neutralize the pH. In the two-part formulation (used to combine with equal volumes of 40 mg/mL fosfomycin to generate the final formulation of 50 mg/mL amikacin, 20 mg/mL fosfomycin), the amikacin 100 mg/mL solution has a final pH of 7.5-7.6 and has an osmolality of approximately 533 mOsmol/kg, of which only approximately 170 mOsmol/kg is due to the amikacin, the balance is from the chloride anion. This concentration of chloride anion provides the permeant anion that will prevent cough.
In contrast, the starting pH of amikacin sulfate is 3.5-5.5 and little or no HCl is needed to neutralize the pH of the solution. Note that in the Neiderman paper (supra) amikacin sulfate was delivered as an aerosol to patients with VAP, and bronchospasm was reported in some patients. […] As described above, a final formulation has an amikacin concentration of 50 mg/ml and chloride anion concentration of approximately 265 meq/liter. […]

clinical = conditions: both, human, in vivo
Procedure: Adult patients having a clinical diagnosis of VAP, with a Gram-positive or Gram-negative organism in a tracheal aspirate sample were expected to be on mechanical ventilation for ≧3 days.
Each adult patient received 3 escalating doses of a mixture of 50 mg/mL amikacin and 20 mg/mL fosfomycin, with doses separated by 24±2 hours (Table 1).
All treatments were administered with a single patient, multi-treatment nebulizer (Investigational eFlow® Inline Nebulizer System; PARI Pharma GMBH, Starnberg, Germany), positioned in the inspiratory tubing between the ventilator and the patient. The nebulizer remained inline until all treatments were delivered.
A placebo: 0.9% normal saline, having a volume matched to the antibiotic dosing schedule was delivered via the PARI Investigational eFlow® Inline Nebulizer System in mechanically ventilated patients.
The eFlow® Inline Nebulizer System was positioned in the inspiratory tubing between the Puritan Bennett 840 Ventilator and the patient. Once in place, the nebulizer remained inline until all study-drug doses were delivered. Humidification continued during the nebulization of the formulation and the delivery of the entire dose.
Patients are male or female between 18 years and 80 years of age with clinical diagnosis of VAP or VAT, a Gram-positive or Gram-negative bacteria on Gram stain of the tracheal aspirate and were expected to be on mechanical ventilation for at least three days.

[3] = test system: 62 Gram-negative, amikacin-resistant pathogens; assay: MIC by CLSI agar dilution, all 62 amikacin-resistant isolates; assay type: cell-based; conditions: for MIC50: All 62 isolates
Excerpt: (§1) Sixty-two amikacin-resistant strains were selected from a worldwide antimicrobial surveillance collection (SENTRY), which contains 35,000 organisms from six continents (56/62 organisms collected in 2011).

in vivo [4] = assay: in vivo; design: species or system beagle dogs; conditions: both sexes, beagle, dog, delivered as combination antibiotic aerosol, 7-day treatment
Procedure: Aerosol concentrations were determined on Days 1 and 7.

[5] = test system: methicillin-resistant Staphylococcus aureus (MRSA); conditions: 148 MRSA isolates, data from the 1980s; cited from earlier work
Acinetobacter baumannii = assay: MIC by CLSI agar dilution, amikacin-resistant A. baumannii strains (SENTRY); assay type: cell-based; conditions: for MIC50: 21 A. baumannii isolates
Excerpt: as §1

Klebsiella pneumoniae = assay: MIC by CLSI agar dilution, amikacin-resistant K. pneumoniae strains (SENTRY); assay type: cell-based; conditions: 20 K. pneumoniae isolates
Excerpt: as §1

in vivo [6] = conditions: dog; for Cmax: both, beagle
Procedure: A GLP (Good Laboratory Practice) study was performed using 24 beagle dogs allocated to four dose groups (three males and three females per group) and exposed to aerosol generated with the PARI Investigational eFlow® Inline Nebulizer System using a closed-faced mask fitted with a mouth tube. The aerosols contained either control (water for injection) in Group 1 or a combined formulation containing 50 mg/mL amikacin and 20 mg/mL fosfomycin pH adjusted with HCl for Groups 2 to 4. Aerosol concentrations were determined on Days 1 and 7. The treatment period was for seven days with termination of the dogs on Day 8.
Toxicokinetic parameters were estimated using WinNonlin pharmacokinetic software version 5.2.1 (Pharsight Corp.). A non-compartmental approach consistent with the extravascular route of administration was used for parameter estimation. All parameters were generated from individual amikacin and fosfomycin concentrations in plasma from Days 1 and 7.

Pseudomonas aeruginosa [7] = assay: MIC by CLSI agar dilution, amikacin-resistant P. aeruginosa strains (SENTRY); assay type: cell-based; conditions: 21 P. aeruginosa isolates
Excerpt: as §1

[8] = Aerosol particle size distribution (MMAD) in dog study; assay type: physicochemical; conditions: analytical methods, eFlow Inline Nebulizer aerosol
[9] = of water; cited from earlier work
[10] = test system: Stenotrophomonas maltophilia; conditions: Zhanel et al.; cited from earlier work
Pseudomonas aeruginosa [11] = conditions: 1477 Pseudomonas aeruginosa isolates, Zhanel et al.; cited from earlier work
[12] = read-out: Median (MIC50) Fosfomycin MIC
[13] = read-out: Median (MIC50) Amikacin MIC

For `NC[C@H]1O[C@H](O[C@H]2[C@H](O)[C@@H](O[C@H]3O[C@H](CO)[C@@H](O)[C@H](N)[C@H]3O)[C@H](N)C[C@@H]2N)[C@H](N)C[C@@H]1O` [tobramycin], which airway half-life [1] is on record?
The airway half-life was “about 2 hours”.

With `NCC[C@H](O)C(=O)N[C@@H]1C[C@H](N)[C@@H](O[C@H]2O[C@H](CN)[C@@H](O)[C@H](O)[C@H]2O)[C@H](O)[C@H]1O[C@H]1O[C@H](CO)[C@@H](O)[C@H](N)[C@H]1O` [Amikacin base] as the compound, how does the pH [2] read?
Its pH is “approximately 11”.

For `C[C@@H]1O[C@@H]1P(=O)(O)O` [Fosfomycin, fosfomycin], which Kp (clinical) is on record?
The Kp was over 2000.

And the “Mean fosfomycin Cmax in tracheal aspirate, fold higher than MIC 90 for MRSA” value (clinical)?
The value was 281 fold.

And the “fosfomycin Cmax in tracheal aspirate, fold higher than MIC 90 of MRSA” value (clinical)?
The value was at least 54 fold.

And the “fosfomycin tracheal aspirate concentrations, fold above the MIC 90 for MRSA” value (clinical; 6 h)?
Its value is at least 2.2 fold.

What about the MIC50 [3, 12] of the same compound?
Its MIC50 is 51.2 µg/mL (≈ 371 µM).

What about the NOAEL at 7 days (in vivo [4]) of the same compound?
Its NOAEL at 7 days is 47.5 mg/kg/day.

What about the “MIC 90” value [5] of the same compound?
Its value is 32 µg/mL (≈ 232 µM).

What about the MIC50 (Acinetobacter baumannii; [12]) of the same compound?
The MIC50 was 205 µg/mL (≈ 1480 µM).

What about the MIC50 (Klebsiella pneumoniae; [12]) of the same compound?
Its MIC50 is 25.6 µg/mL (≈ 185 µM).

And the Cmax (in vivo [6])?
Its Cmax is 8700 to 28700 ng/mL.

And the “accumulation following repeat dosing” value (in vivo [6])?
Its value is “no clear indication of accumulation”.

What about the MIC50 (Pseudomonas aeruginosa [7]; [12]) of the same compound?
The MIC50 was 51.2 µg/mL (≈ 371 µM).

And the “particle size distribution (MMAD)” value [8]?
Its value is 2.75 μm.

Which solubility [9] does the source give for `C[C@@H]1O[C@@H]1P(=O)(O)O` [disodium salt of fosfomycin, Fosfomycin disodium] here?
The solubility was 50 mg/mL.

Which results are given for `NCC[C@H](O)C(=O)N[C@@H]1C[C@H](N)[C@@H](O[C@H]2O[C@H](CN)[C@@H](O)[C@H](O)[C@H]2O)[C@H](O)[C@H]1O[C@H]1O[C@H](CO)[C@@H](O)[C@H](N)[C@H]1O` [Amikacin, amikacin]?
Kp (clinical): > 2000; Mean amikacin Cmax in tracheal aspirate, fold higher than MIC 90 for P. aeruginosa (clinical): ≥ 406 fold; amikacin Cmax in tracheal aspirate, fold higher than MIC90 of P. aeruginosa (clinical): ≥ 89 fold; MIC50 [3, 13]: 128 µg/mL (≈ 219 µM); amikacin concentration required to inhibit all 62 isolates ([3]; FIG. 4): > 1024 µg/mL; NOAEL at 7 days (in vivo [4]): 117 mg/kg/day; MIC (Acinetobacter baumannii; 5 A. baumannii isolates with high amikacin resistance): > 1020 µg/mL; MIC50 (Acinetobacter baumannii; [13]): 8 µg/mL (≈ 13.7 µM); MIC 90 [10]: > 64 µg/mL; MIC50 (Klebsiella pneumoniae; [13]): 256 µg/mL (≈ 437 µM); MIC 90 (Pseudomonas aeruginosa [11]): 32 µg/mL (≈ 54.6 µM); Cmax (in vivo [6]): 13200 to 39300 ng/mL; accumulation following repeat dosing (in vivo [6]): no clear indication of accumulation; MIC50 (Pseudomonas aeruginosa [7]; [13]): 128 µg/mL (≈ 219 µM); particle size distribution (MMAD) [8]: 2.80 μm
